Legend:
Format in all cases: cell-based
Colo205 = assay: In vitro colorimetric cell death assay (MTT assay); settings: Colo205 (colon cancer), 48 hours
Description: (§1) MTT assay was carried for assessing cell viability where the cells were grown in two-dimensional surface. The procedure for the assay is as follows. Cancer cells were plated in 96 well plates as per predetermined plating efficiency. The plates were incubated for 24 hours in a 5% CO2 atmosphere at 37° C., a range of concentrations of the compound of the present invention was added to the wells, the plates were incubated further for 48 hours in a 5% CO2 atmosphere, the plates were centrifuged twice at 3000 rpm for 3 minutes, the supernatant fluid was discarded, 100 uL of 0.5 mg/mL MIT solution was added and the plates were incubated for 4 hours in a 5% CO2 atmosphere at 37° C. The plates were then centrifuged twice at 3000 rpm for 3 minutes, supernatant was aspirated very carefully, 200 uL DMSO was added to each well to solubilize MTT crystals and mixed well by shaking the plates, the plates were incubated for 10 minutes in a 5% CO2 atmosphere at 37° C., the plates were placed on the shaker of an ELISA plate reader and the absorbance at 570 nm was measured, then the percentage of viable cells remaining was calculated by first subtracting the background absorbance then comparing to the absorbance of a non-drug-treated cell sample, and the results were plotted on a graph to determine the IC50 for the compound as known in the art. The reference drug used was Cisplatin.

Colo320 = assay: In vitro colorimetric cell death assay (MTT assay); settings: Colo320 (colon cancer), 48 hours
Description: as §1

HCT-15 [1] = assay: In vitro colorimetric cell death assay (MTT assay); settings: HCT-15 (colon cancer), 48 hours
Description: as §1

Hep3B = assay: In vitro colorimetric cell death assay (MTT assay); settings: Hep3B (hepatic cancer), 48 hours
Description: as §1

L929 [2] = assay: In vitro colorimetric cell death assay (MTT assay); settings: L929 (fibroblast), 48 hours
Description: as §1

LnCaP [3] = assay: In vitro colorimetric cell death assay (MTT assay); settings: LnCaP (prostate cancer), 48 hours
Description: as §1

NCIH23 = assay: In vitro colorimetric cell death assay (MTT assay); settings: NCIH23 (lung cancer), 48 hours
Description: as §1

SiHa [4] = assay: In vitro colorimetric cell death assay (MTT assay); settings: SiHa (cervical cancer), 48 hours
Description: as §1

T47D [5] = assay: In vitro colorimetric cell death assay (MTT assay); settings: T47D (breast cancer), 48 hours
Description: as §1

MDA MB 231 cell line = assay: In vitro 3D sphere forming stem cell assay
Description: In Vitro 3D Sphere Forming Stem Cell Assay Compounds of Formula III & IV were evaluated in an in vitro 3D sphere forming stem cell assay as described by Rajasekhar, V K, Analytical Methods for Cancer Stem Cells. Methods in Molecular Biology, 2007, Volume 407, 83-95.
An exemplary procedure for the in vitro 3D sphere forming stem cell assay is described as follows. Breast Cancer Cells were grown in two dimensions on a plastic substrate, harvested in suspension in serum-free media, then the cells in the sample were trypsinized and a single cell suspension was formed by passing through a cell strainer. The cells were diluted according to the predetermined plating efficiency for the cell line being studied by suspending the cells in stem cell culture medium. 100 uL of this suspension was added into each well of a 96 well suspension plate, and the plate was incubated at 37° C. in 5% CO2 atmosphere for 24 hours, then 2 uL of appropriate concentrations of the drugs was added into each respective well along with 100 uL of stem cell culture medium, and the plates incubated at 37° C. under 5% CO2 atmosphere for 72 hours. 2.5 uL of the appropriate drug concentration (Formula III and Formula IV) of was then added to each respective well along with 50 uL of stem cell culture medium, then the plates incubated at 37° C. under 5% CO2 atmosphere for 72 hours. 3 uL of the appropriate drug concentration was added to each respective well along with 50 uL of stem cell culture medium, then incubated at 37° C. under 5% CO2 atmosphere for 72 hours, the spheres formed were observed under a microscope then counted and scored by size.
The number in each box is the total number of spheres formed in the presence of either cisplatin, compound of Formula III or compound of Formula IV at each drug concentration. GC refers to a growth control performed in the absence of drug or solvent (DMSO). GCD refers to a growth control performed in the absence of drug, but in the presence of DMSO.

DU145 = assay: In vitro soft agar colony forming growth assay; settings: DU145, one week
Description: (§2) Compounds of Formula IV were evaluated in an in vitro soft agar colony forming growth inhibition assay as described by Lieber, M M, and Kovach, J S. Soft agar colony formation assay for chemotherapeutic sensitivity of human solid tumors. Mayo Clin Proc 1982; 57: 527-528 and Tanigawa, N, Kern, D H, Kikasa, Y, and Morton, D L. Rapid assay for evaluating the chemosensitivity of human tumors in soft agar culture. Cancer Res 1982; 42: 2159-2164.
(§3) An exemplary procedure for the in vitro soft agar colony forming growth inhibition assay is as follows.

HCT-15 [6] = assay: In vitro soft agar colony forming growth assay; settings: HCT-15, one week
Description: as §2, §3

L929 [7] = assay: In vitro soft agar colony forming growth assay; settings: L929, one week
Description: as §2, §3

LnCaP [8] = assay: In vitro soft agar colony forming growth assay; settings: one week
Description: as §2, §3

PC3 = assay: In vitro soft agar colony forming growth assay; settings: PC3, one week
Description: as §2, §3

SiHa [9] = assay: In vitro soft agar colony forming growth assay; settings: one week
Description: as §2, §3

T47D [10] = assay: In vitro soft agar colony forming growth assay; settings: one week
Description: as §2, §3

[11] = tested on: PC3 (Prostrate Cancer) cells; assay: CD44 and CD24 expression on PC3 cells by Flow Cytometry; settings: 48 hours
Description: A study was conducted to determine the effect of compound of Formula IV and Cisplatin on CD44 and CD24 expression on PC3 (Prostrate Cancer) cells by Flow Cytometry. PC3 cells (0.35×106) were cultured in R.P.M.I (Roswell Park Memorial Institute Medium)-1640 cell culture medium with 10% F.B.S (Fetal Bovine Serum) on 60 mm TC (Tissue Culture) plates. Cells were exposed to IC10 drug concentration of Cisplatin & IC10 drug concentration of compound of Formula IV in duplicates. Similarly other sets were exposed to IC25 drug concentration of Cisplatin & compound of Formula IV in duplicates. IC10 and IC25 drug concentrations were calculated as per MTT results. All the sets were incubated at 37° C., 5% CO2 for 48 hours. After 48 hours, cells were observed under the microscope. Cells were trypsinised, washed with D.P.B.S. (Dulbecco's Phosphate Buffered Saline) and 50 μL of cells were taken for each set and 5 μL of each of CD24 and CD44 antibodies were added. CD24-FITC (Fluorescein isothiocyanate) labeled & CD44-PE (Phycoerythrin) labeled was used for the study. The sets were incubated for 45 minutes at 4° C. in dark for proper binding of antibodies. After incubation the cells were washed with 200 μL of D.P.B.S., supernatant was discarded and the cells were finally suspended in 300 μL of FACS buffer (4% F.B.S in D.P.B.S.). […]

N.N.[Cl][Pt][Cl] [Cisplatin]
IC50 (Colo205): 44.3 µM
IC50 (Colo320): 38.3 µM
IC50 (HCT-15 [1]): 49.1 µM
IC50 (Hep3B): 37.6 µM
IC50 (L929 [2]): 38 µM
IC50 (LnCaP [3]): 38.4 µM
IC50 (NCIH23): 45.7 µM
IC50 (SiHa [4]): 43.2 µM
IC50 (T47D [5]): 95.5 µM
# of 3D Spheres Formed (±SD) (MDA MB 231 cell line; MDAMB 231, 1.1 uM): 35(±4)
# of 3D Spheres Formed (±SD) (MDA MB 231 cell line; MDAMB 231, 11 uM): 24(±2)
# of 3D Spheres Formed (±SD) (MDA MB 231 cell line; MDAMB 231, 110 uM): 16(±2)
IC50 (DU145): 33.1 µM
IC50 (HCT-15 [6]): 40 µM
IC50 (L929 [7]): 9.44 µM
IC50 (LnCaP [8]): 31.6 µM
IC50 (PC3): 52.5 µM
IC50 (SiHa [9]): 19.5 µM
IC50 (T47D [10]): 39.8 µM
effect on cell / CD44 population ([11]; IC10 drug concentration): most of the cells remain unaffected
effect on CD44 cell population ([11]; IC25 drug concentration): good number of CD44 cell population surviving

COc1ccc(/C=C/C(=O)c2cccc(Nc3c4ccc(Cl)cc4nc4ccc(OC)cc34)c2)cc1 [Formula III, 1-(3-(6-chloro-2-methoxyacridin-9-ylamino)phenyl)-3-(4-methoxyphenyl)prop-2-en-1-one]
sphere reduction as compared to standard drug Cisplatin (MDA MB 231 cell line; MDA MB 231): Significant sphere reduction
# of 3D Spheres Formed (±SD) (MDA MB 231 cell line; MDAMB 231, 1.1 uM): 15(±2)
# of 3D Spheres Formed (±SD) (MDA MB 231 cell line; MDAMB 231, 11 uM): 0(±0)
# of 3D Spheres Formed (±SD) (MDA MB 231 cell line; MDAMB 231, 110 uM): 0(±0)

From patent US20160214941A1, “Compounds for lnhibition of Unregulated Cell Growth” (GODAVARI BIOREFINERIES LIMITED, priority 2013, published 2016)
